Molecules are shown by their SMILES.

What all share (assay type): biochemical
For assay [1], the target named is Human Factor XIIa (Homo sapiens (Human), UniProt P00748). Kind of assay: Determination of FXIIa inhibition (fluorogenic substrate H-DPro-Phe-Arg-AFC, IC50 assay). As to conditions: substrate H-DPro-Phe-Arg-AFC at Km, 25° C.; class scale A-G. The gist of the method:
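IC50 derived from % remaining activity, taken as the linear fluorescence rate over a 5 min read at 25° C. Substrate H-DPro-Phe-Arg-AFC was used at its Km (Michaelis-Menten) with human FXIIa and serial compound dilutions, 25° C.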

Assay [2] concerns the target FXa (Homo sapiens (Human), UniProt P00742). Nature of the assay: Determination of related protease inhibition: FXa (fluorogenic substrate at Km). Conditions: 25° C. The gist of the method: (§1)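 IC50 derived as the concentration halving uninhibited activity, from linear fluorescence increase per minute monitored 5 min at 25 °C. Each human protease was run with its fluorogenic substrate at Km concentration across a range of test compound concentrations.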

Assay [3] has as its target Thrombin (Homo sapiens (Human), UniProt P00734). Nature of the assay: Determination of related protease inhibition: Thrombin (fluorogenic substrate at Km). As to conditions: 25° C. The gist of the method:
as §1

Assay [4] deals with KLK1 (Homo sapiens (Human), UniProt P06870). Nature of the assay: Determination of related protease inhibition: KLK1 (fluorogenic substrate at Km). As to conditions: 25° C. The gist of the method: as §1
In assay [5] the target is Plasma Kallikrein (Homo sapiens (Human), UniProt P03952). Nature of the assay: Determination of related protease inhibition: Plasma Kallikrein (fluorogenic substrate at Km). Conditions: 25° C., read-out: IC50 (human PKal). The method, boiled down:
as §1

Chain of KLK1 (P06870 25-262): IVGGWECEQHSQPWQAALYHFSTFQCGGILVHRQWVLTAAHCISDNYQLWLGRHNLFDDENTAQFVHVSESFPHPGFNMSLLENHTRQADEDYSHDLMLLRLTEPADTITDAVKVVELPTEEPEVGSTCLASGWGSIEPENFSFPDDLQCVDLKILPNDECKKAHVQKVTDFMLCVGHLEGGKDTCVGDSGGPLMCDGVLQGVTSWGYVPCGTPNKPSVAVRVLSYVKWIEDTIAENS
Chain of Human Factor XIIa (P00748 373-615): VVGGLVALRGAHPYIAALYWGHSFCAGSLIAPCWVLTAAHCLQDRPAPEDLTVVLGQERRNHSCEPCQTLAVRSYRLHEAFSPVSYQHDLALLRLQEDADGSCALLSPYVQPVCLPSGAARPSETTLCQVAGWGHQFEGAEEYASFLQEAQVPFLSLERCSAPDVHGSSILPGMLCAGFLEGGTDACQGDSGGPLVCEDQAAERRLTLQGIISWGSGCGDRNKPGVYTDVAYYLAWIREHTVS
Chain of FXa (P00742 235-488): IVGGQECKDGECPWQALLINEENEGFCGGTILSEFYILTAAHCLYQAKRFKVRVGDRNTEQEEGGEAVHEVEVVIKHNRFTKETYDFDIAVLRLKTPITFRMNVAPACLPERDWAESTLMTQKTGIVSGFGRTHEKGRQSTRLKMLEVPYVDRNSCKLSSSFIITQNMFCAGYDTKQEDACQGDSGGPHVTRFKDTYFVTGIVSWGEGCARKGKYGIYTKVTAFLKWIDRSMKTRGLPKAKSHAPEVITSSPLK
Chain of FXa (P00742 41-179 partner): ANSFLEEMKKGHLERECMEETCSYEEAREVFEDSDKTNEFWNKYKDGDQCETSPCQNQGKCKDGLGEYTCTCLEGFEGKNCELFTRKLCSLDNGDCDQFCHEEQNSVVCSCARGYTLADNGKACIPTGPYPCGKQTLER
Chain of Plasma Kallikrein (P03952 391-638): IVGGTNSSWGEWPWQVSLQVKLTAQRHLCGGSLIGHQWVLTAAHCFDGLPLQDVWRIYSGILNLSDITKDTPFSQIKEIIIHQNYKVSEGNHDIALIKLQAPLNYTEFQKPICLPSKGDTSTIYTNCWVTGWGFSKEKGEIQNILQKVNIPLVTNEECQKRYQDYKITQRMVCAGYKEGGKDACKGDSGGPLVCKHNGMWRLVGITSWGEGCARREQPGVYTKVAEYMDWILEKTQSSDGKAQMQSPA
Chain of Plasma Kallikrein (P03952 20-390 partner): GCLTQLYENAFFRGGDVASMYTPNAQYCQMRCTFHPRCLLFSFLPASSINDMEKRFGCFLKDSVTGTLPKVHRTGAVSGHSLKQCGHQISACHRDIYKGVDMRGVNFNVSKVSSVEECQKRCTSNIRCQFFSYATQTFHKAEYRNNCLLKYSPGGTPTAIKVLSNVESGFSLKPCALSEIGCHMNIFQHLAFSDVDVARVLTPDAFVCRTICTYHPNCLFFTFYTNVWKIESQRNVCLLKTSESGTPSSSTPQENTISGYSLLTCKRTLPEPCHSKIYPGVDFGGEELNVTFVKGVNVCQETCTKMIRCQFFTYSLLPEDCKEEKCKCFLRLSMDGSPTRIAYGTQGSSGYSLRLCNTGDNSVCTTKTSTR

For the compound `Cn1ccnc1CCOc1cc(CNc2ccc3c(N)nccc3c2)ccn1` [Example 4283, 6-N-({2-[2-(1-methylimidazol-2-yl)ethoxy]pyridin-4-yl}methyl)isoquinoline-1,6-diamine], the IC50 in assay [1] was in the range of 1 to 3 µM; in assay [2], 3 to 10 µM; in assay [3], 1 to 3 µM; in assay [4] it was 0.3 to 1 µM; in assay [5] it was 3 to 10 µM.
With `Nc1nccc2cc(NCc3ccnc(-c4cccc(CN5CCCC5)c4)c3)ccc12` [Example 4434, 6-N-({2-[3-(pyrrolidin-1-ylmethyl)phenyl]pyridin-4-yl}methyl)isoquinoline-1,6-diamine], the IC50 in assay [1] was 0.1 to 0.3 µM; in assay [2] it was 3 to 10 µM; in assay [3], above 40 µM; in assay [4], 3 to 10 µM; in assay [5], above 40 µM.
Take `CN1CC2CCC(C1)C2COc1cc(CNc2ccc3c(N)nccc3c2)ccn1` (stereo not shown) [Example 4270, N6-((2-((3-methyl-3-azabicyclo[3.2.1]octan-8-yl)methoxy)pyridin-4-yl)methyl)isoquinoline-1,6-diamine]: the IC50 lay in the range of 0.01 to 0.1 µM in assay [1]; 0.01 to 0.1 µM in assay [2]; 1 to 3 µM in assay [3]; 0.3 to 1 µM in assay [4]; 3 to 10 µM in assay [5].
For the compound `CC(C)N1CC2(CN(Cc3ccc(CNc4cccc5c(N)nccc45)c(F)c3)C2)C1` [Example 1036, N5-(2-fluoro-4-((6-isopropyl-2,6-diazaspiro[3.3]heptan-2-yl)methyl)benzyl)isoquinoline-1,5-diamine], the IC50 is 0.3 to 1 µM in assay [1]; above 40 µM in assay [2]; above 40 µM in assay [3]; 10 to 40 µM in assay [4]; 10 to 40 µM in assay [5].
For `CN1CCC(COc2cc(CNc3nccc4c(N)ccnc34)ccn2)CC1` [Example 4273, N8-((2-((1-methylpiperidin-4-yl)methoxy)pyridin-4-yl)methyl)-1,7-naphthyridine-4,8-diamine], the IC50 in assay [1] is 3 to 10 µM; in assay [2], 3 to 10 µM; in assay [3], above 40 µM; in assay [4], 10 to 40 µM; in assay [5], above 40 µM.
In the case of `Cc1cn2c(n1)CC(COc1cc(CNc3cccc4c(N)nccc34)ccn1)CC2` (stereo not shown) [Example 4319, N5-[[2-[(2-methyl-5,6,7,8-tetrahydroimidazo[1,2-a]pyridin-7-yl)methoxy]-4-pyridyl]methyl]isoquinoline-1,5-diamine], the IC50 was 0.1 to 0.3 µM in assay [1]; 10 to 40 µM in assay [2]; above 40 µM in assay [3]; 3 to 10 µM in assay [4]; 3 to 10 µM in assay [5].
As for `CN1CC2CC1CC2COc1cc(CNc2ccc3c(N)nccc3c2)ccn1` (stereo not shown) [Example 4277, N6-((2-((2-methyl-2-azabicyclo[2.2.1]heptan-5-yl)methoxy)pyridin-4-yl)methyl)isoquinoline-1,6-diamine], the IC50 in assay [1] is 0.1 to 0.3 µM; in assay [2] it was 0.3 to 1 µM; in assay [3] it was 1 to 3 µM; in assay [4] it was 1 to 3 µM; in assay [5], 3 to 10 µM.
For the compound `CN1C[C@@H](COc2cc(CNc3cccc4c(N)nccc34)ccn2)OC1=O` [Example 4279, (5S)-5-{[(4-{[(1-aminoisoquinolin-5-yl)amino]methyl}pyridin-2-yl)oxy]methyl}-3-methyl-1,3-oxazolidin-2-one], the IC50 in assay [1] is 3 to 10 µM; in assay [2] it was above 40 µM; in assay [3], above 40 µM; in assay [4] it was 10 to 40 µM; in assay [5], above 40 µM.
As to `Cn1ccnc1CCOCc1ccc(CNc2cccc3c(N)nccc23)c(F)c1` [Example 2208, N5-[[2-fluoro-4-[2-(1-methylimidazol-2-yl)ethoxymethyl]phenyl]methyl]isoquinoline-1,5-diamine], the IC50 in assay [1] is 1 to 3 µM; in assay [2], 10 to 40 µM; in assay [3], 10 to 40 µM; in assay [4] it was 10 to 40 µM; in assay [5] it was above 40 µM.
With `CN1CCC(CNc2ccc(CNc3cncc4[nH]c(Cl)cc34)cn2)CC1` [Example 1251, 2-Chloro-N-((6-(((1-methylpiperidin-4-yl)methyl)amino)pyridin-3-yl)methyl)-1H-pyrrolo[2,3-c]pyridin-4-amine], the IC50 was 0.01 to 0.1 µM in assay [1]; 1 to 3 µM in assay [2]; 3 to 10 µM in assay [3]; 10 to 40 µM in assay [4]; 10 to 40 µM in assay [5].
Consider `COc1nnc2n1CCN(c1ccc(CNc3cccc4c(N)nccc34)cn1)C2` [Example 1250, N5-((6-(3-methoxy-5,6-dihydro-[1,2,4]triazolo[4,3-a]pyrazin-7(8H)-yl)pyridin-3-yl)methyl)isoquinoline-1,5-diamine], for which the IC50 in assay [1] was 1 to 3 µM; in assay [2], above 40 µM; in assay [3], above 40 µM; in assay [4], 3 to 10 µM; in assay [5], above 40 µM.
In the case of `Cc1nnc2n1CCN(c1ccc(CNc3cccc4c(N)nccc34)cn1)C2` [Example 1279, N5-((6-(3-methyl-5,6-dihydro-[1,2,4]triazolo[4,3-a]pyrazin-7(8H)-yl)pyridin-3-yl)methyl)isoquinoline-1,5-diamine], the IC50 in assay [1] was 0.1 to 0.3 µM; in assay [2] it was above 40 µM; in assay [3] it was above 40 µM; in assay [4] it was 3 to 10 µM; in assay [5], above 40 µM.
`CN1CCC(CNc2cc(CNc3cccc4c(N)nccc34)ccn2)CC1` [Example 4286, N5-((2-(((1-methylpiperidin-4-yl)methyl)amino)pyridin-4-yl)methyl)isoquinoline-1,5-diamine]: the IC50 in assay [1] was 0.3 to 1 µM; in assay [2], above 40 µM; in assay [3], above 40 µM; in assay [4] it was 3 to 10 µM; in assay [5] it was 10 to 40 µM.
For `Nc1ncc(Cl)c2cc(NCc3ccc(CCN4CCOCC4)cc3F)ccc12` [Example 2215, 4-chloro-6-N-({2-fluoro-4-[2-(morpholin-4-yl)ethyl]phenyl}methyl)isoquinoline-1,6-diamine], the IC50 is 10 to 40 µM in assay [1]; above 40 µM in assay [2]; above 40 µM in assay [3]; 10 to 40 µM in assay [4]; above 40 µM in assay [5].
For the compound `CN1CCN(CCc2ccc(CNc3ccc4c(N)ncc(Cl)c4c3)c(F)c2)CC1` [Example 2184, 4-Chloro-N6-[[2-fluoro-4-[2-(4-methylpiperazin-1-yl)ethyl]phenyl]methyl]isoquinoline-1,6-diamine], the IC50 in assay [1] is 3 to 10 µM; in assay [2] it was above 40 µM; in assay [3], above 40 µM; in assay [4], 3 to 10 µM; in assay [5], above 40 µM.
For `Cn1ccnc1CCOc1cc(CNc2cccc3c(N)nccc23)ccn1` [Example 4282, 5-N-({2-[2-(1-methylimidazol-2-yl)ethoxy]pyridin-4-yl}methyl)isoquinoline-1,5-diamine], the IC50 was 1 to 3 µM in assay [1]; 10 to 40 µM in assay [2]; above 40 µM in assay [3]; 3 to 10 µM in assay [4]; above 40 µM in assay [5].
Consider `CN1CCC(COc2cc(CNc3ccnc4c(N)nccc34)ccn2)CC1` [Example 4272, 4-N-[[2-[(1-methyl-4-piperidyl)methoxy]-4-pyridyl]methyl]-1,7-naphthyridine-4,8-diamine], for which the IC50 in assay [1] was 3 to 10 µM; in assay [2] it was above 40 µM; in assay [3] it was above 40 µM; in assay [4], above 40 µM; in assay [5] it was above 40 µM.
Take `Cc1cc2c(NCc3ccc(NCC4CCN(C)CC4)nc3)ccnc2[nH]1` [Example 1202, 2-Methyl-N-((6-(((1-methylpiperidin-4-yl)methyl)amino)pyridin-3-yl)methyl)-1H-pyrrolo[2,3-b]pyridin-4-amine]: the concentration for half-maximal inhibition (IC50) is 0.1 to 0.3 µM in assay [1]; 10 to 40 µM in assay [2]; 10 to 40 µM in assay [3]; above 40 µM in assay [4]; above 40 µM in assay [5].
With `CN1CCC(COc2cc(CNc3cccc4c(N)nccc34)cc(C(F)(F)F)n2)CC1` [Example 4281, 5-N-[[2-[(1-methyl-4-piperidyl)methoxy]-6-(trifluoromethyl)-4-pyridyl]methyl]isoquinoline-1,5-diamine], the IC50 is 0.3 to 1 µM in assay [1]; above 40 µM in assay [2]; above 40 µM in assay [3]; 3 to 10 µM in assay [4]; above 40 µM in assay [5].
For the compound `CN1CC2C(COc3cc(CNc4ccc5c(N)nccc5c4)ccn3)C2C1` (stereo not shown) [Example 4269, N6-((2-((3-methyl-3-azabicyclo[3.1.0]hexan-6-yl)methoxy)pyridin-4-yl)methyl)isoquinoline-1,6-diamine], the IC50 fell in the range of 0.1 to 0.3 µM in assay [1]; 0.01 to 0.1 µM in assay [2]; 0.3 to 1 µM in assay [3]; 0.3 to 1 µM in assay [4]; 3 to 10 µM in assay [5].

The IC50 is the point on the concentration scale where inhibition reaches its midpoint.

The record behind these values is patent US20240059691A1 (KALVISTA PHARMACEUTICALS LIMITED, priority 2020, published 2024).
